Source: ChEMBL document CHEMBL1201862, “PubChem BioAssay data set” (2004)
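Where inhibition never reached the appropriate level, the endpoint shown equals the highest concentration tested. Otherwise, values were interpolated linearly from a five-concentration, 48-hour dose response in 96-well plates. Abbreviation: GI50, concentration required for 50% inhibition of growth.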 Activity calls are given as the source filed them. Cut-off read from the data, not from the text of the source: active = GI50 up to about 1.1 µM and inactive = higher.

Tests used:
Assay in all cases: NCI tumour cell line growth inhibition, 48 h
[1] = tested on: HCT-116
[2] = tested on: A549
[3] = tested on: U-251
[4] = tested on: NCI/ADR-RES
[5] = tested on: MDA-N
[6] = tested on: SNB-19
[7] = tested on: OVCAR-4
[8] = tested on: ACHN
[9] = tested on: TK-10
[10] = tested on: MOLT-4
[11] = tested on: SR
[12] = tested on: IGROV-1
[13] = tested on: OVCAR-5
[14] = tested on: Malme-3M
[15] = tested on: MDA-MB-231
[16] = tested on: RXF 393
[17] = tested on: SK-OV-3
[18] = tested on: LOX IMVI
[19] = tested on: NCI-H460

Row | SMILES | GI50 [1] | GI50 [2] | GI50 [3] | GI50 [4] | GI50 [5] | GI50 [6] | GI50 [7] | GI50 [8] | GI50 [9] | GI50 [10] | GI50 [11] | GI50 [12] | GI50 [13] | GI50 [14] | GI50 [15] | GI50 [16] | GI50 [17] | GI50 [18] | GI50 [19]
1 | O=C(/C=C/c1cc(F)ccc1F)OCCc1ccccc1 | > 100 µM (inactive) | > 100 µM (inactive) | 33 µM (inactive) | > 100 µM (inactive) | 91.4 µM (inactive) | > 100 µM (inactive) | 0.933 µM (active) | > 100 µM (inactive) | > 100 µM (inactive) | 49.3 µM (inactive) | 40.2 µM (inactive) | > 100 µM (inactive) | > 100 µM (inactive) | > 100 µM (inactive) | 63 µM (inactive) | 91.6 µM (inactive) | – | – | –
2 | Cc1nc(C(N)=S)sc1C(=O)CC(=O)C(=O)Nc1c(C(C)C)cccc1C(C)C | 38.7 µM (inactive) | 35.8 µM (inactive) | 36.6 µM (inactive) | – | – | 45.8 µM (inactive) | > 100 µM (inactive) | 81.5 µM (inactive) | > 100 µM (inactive) | 41 µM (inactive) | 26.4 µM (inactive) | 61.4 µM (inactive) | > 100 µM (inactive) | 39.2 µM (inactive) | – | 20.3 µM (inactive) | 36 µM (inactive) | 49.3 µM (inactive) | 40.5 µM (inactive)
3 | O=C(CN1CCCCC1)c1ccc2[nH]c(=O)oc2c1 | > 100 µM (inactive) | – | > 100 µM (inactive) | > 100 µM (inactive) | > 100 µM (inactive) | > 100 µM (inactive) | – | > 100 µM (inactive) | > 100 µM (inactive) | > 100 µM (inactive) | > 100 µM (inactive) | > 100 µM (inactive) | > 100 µM (inactive) | > 100 µM (inactive) | > 100 µM (inactive) | > 100 µM (inactive) | > 100 µM (inactive) | > 100 µM (inactive) | > 100 µM (inactive)
4 | COC(=O)/C(=N/NC(N)=O)C(C(=O)OC)C(=O)C(=O)Nc1ccc(Cl)cc1 (stereo not given) | > 70.6 µM (inactive) | > 100 µM (inactive) | > 100 µM (inactive) | – | – | > 100 µM (inactive) | > 100 µM (inactive) | > 100 µM (inactive) | > 100 µM (inactive) | > 100 µM (inactive) | 20.8 µM (inactive) | > 100 µM (inactive) | > 100 µM (inactive) | > 100 µM (inactive) | – | > 100 µM (inactive) | > 100 µM (inactive) | > 83.2 µM (inactive) | > 71.3 µM (inactive)
5 | NC(Cc1ccc(O)cn1)C(=O)O (stereo not given) | > 100 µM (inactive) | > 100 µM (inactive) | 35.2 µM (inactive) | > 100 µM (inactive) | > 100 µM (inactive) | > 100 µM (inactive) | > 100 µM (inactive) | > 100 µM (inactive) | > 100 µM (inactive) | > 100 µM (inactive) | > 100 µM (inactive) | > 100 µM (inactive) | > 100 µM (inactive) | > 100 µM (inactive) | > 100 µM (inactive) | > 100 µM (inactive) | – | > 100 µM (inactive) | > 100 µM (inactive)
6 | COc1cc(/C=C/c2csnn2)cc(OC)c1OC | > 100 µM (inactive) | > 100 µM (inactive) | > 100 µM (inactive) | – | – | > 100 µM (inactive) | > 100 µM (inactive) | 78.3 µM (inactive) | > 100 µM (inactive) | > 100 µM (inactive) | > 100 µM (inactive) | > 100 µM (inactive) | > 100 µM (inactive) | > 100 µM (inactive) | – | > 100 µM (inactive) | > 100 µM (inactive) | > 100 µM (inactive) | > 100 µM (inactive)
7 | Nc1ncnc2c1ncn2C1CC(OC2CCCCO2)C(CO)O1 (stereo not given) | > 100 µM (inactive) | > 100 µM (inactive) | > 100 µM (inactive) | – | – | > 100 µM (inactive) | > 100 µM (inactive) | > 100 µM (inactive) | > 100 µM (inactive) | 61.8 µM (inactive) | > 100 µM (inactive) | > 100 µM (inactive) | > 100 µM (inactive) | > 100 µM (inactive) | – | > 100 µM (inactive) | > 100 µM (inactive) | > 100 µM (inactive) | > 100 µM (inactive)
8 | CCOC(=O)CN1C(=O)c2cccc3cc([N+](=O)[O-])cc(c23)C1=O | 1.63 µM (inactive) | 13.1 µM (inactive) | 7.55 µM (inactive) | – | – | 18.2 µM (inactive) | 1.85 µM (inactive) | 10.1 µM (inactive) | 17 µM (inactive) | 0.373 µM (active) | 0.0525 µM (active) | 3.97 µM (inactive) | 15.5 µM (inactive) | 2.45 µM (inactive) | – | 1.84 µM (inactive) | 26.2 µM (inactive) | 1.43 µM (inactive) | 4.89 µM (inactive)
9 | COC1=C2C[C@@H](C)C[C@@H](OC)[C@@H](O)[C@H](C)/C=C(\C)[C@@H](OC(N)=O)[C@H](OC)/C=C\C=C(/C)C(=O)NC(=CC1=O)C2=O | 0.0419 µM (active) | 5.78 µM (inactive) | 2.93 µM (inactive) | 10.1 µM (inactive) | 0.0216 µM (active) | 10.2 µM (inactive) | – | – | 0.118 µM (active) | 0.0199 µM (active) | – | 0.29 µM (active) | 6.87 µM (inactive) | 0.044 µM (active) | 0.0421 µM (active) | 0.0818 µM (active) | 1.04 µM (active) | – | 1.49 µM (inactive)
10 | C/C=C1/C(=O)O[C@]23C=C[C@@H]4C(C(=O)OC)=CO[C@H](O[C@@H]12)[C@@H]43 [PLUMERICIN] | 0.451 µM (active) | 3.47 µM (inactive) | 2.7 µM (inactive) | 0.676 µM (active) | – | 3.56 µM (inactive) | 1.52 µM (inactive) | – | – | 0.459 µM (active) | – | 1.19 µM (inactive) | 3.66 µM (inactive) | 1.93 µM (inactive) | – | 0.55 µM (active) | 3.93 µM (inactive) | 0.336 µM (active) | 2.08 µM (inactive)
11 | O=c1cc(NNc2ccc3ccccc3c2)[nH]c(=S)[nH]1 | 39.9 µM (inactive) | > 100 µM (inactive) | 27 µM (inactive) | > 100 µM (inactive) | 45.6 µM (inactive) | 94.8 µM (inactive) | 68.7 µM (inactive) | 31.6 µM (inactive) | > 100 µM (inactive) | – | 29.7 µM (inactive) | 22.5 µM (inactive) | > 100 µM (inactive) | 63.7 µM (inactive) | 42.8 µM (inactive) | – | – | 13 µM (inactive) | 40.9 µM (inactive)
12 | CSc1nc2c(ncn2C2OCC(O)C(O)C2O)c(=O)[nH]1 (stereo not given) | > 100 µM (inactive) | > 100 µM (inactive) | > 100 µM (inactive) | > 100 µM (inactive) | – | > 100 µM (inactive) | > 100 µM (inactive) | – | – | > 100 µM (inactive) | – | > 100 µM (inactive) | > 100 µM (inactive) | > 100 µM (inactive) | – | > 100 µM (inactive) | > 100 µM (inactive) | > 100 µM (inactive) | > 100 µM (inactive)
